Measured values from patent US20180353501A1 (Arvinas, Inc., priority 2017, published 2018).

How the values were obtained:
Assay in all cases: Western blot MAPK family degradation selectivity, MDA-MB-231 cells
Type in all cases: cell-based
Conditions in all cases: increasing concentrations
ERK1 = target: T1, ERK1 (Homo sapiens, UniProt P27361)
T1 construct: with increasing concentrations of exemplary compound 50 and 46 in MDA-MB-231 cells; endogenous in cells; host or cells: MDA-MB-231
Description: (§1) FIGS. 12A, 12B, and 12C. Characterization of MAPK family degradation selectivity (related to FIGS. 9A, 9B, 9C, 13A, 13B, 13C, and 13D). (A) p38 MAPK family members (α, β, δ, γ) were aligned using the T-Coffee multiple sequence alignment server. Output results were then colored according to conservation (dark turquoise) and identity (lighter shades of turquoise) in Jalview. (B) Table summarizing pairwise sequence alignments (obtained in Jalview) and structural alignments for Ca atoms (obtained in PyMOL) using the doublyphosphorylated (pTGpY) active conformations of p38δ (PDB: 4MYG), p38α (PDB: 3PY3), and p38γ (PDB: 1CM8). No active conformation crystal structure of p38β currently exists. […] MAPK families are also divided based on their phosphorylation lip motif, (pTxpY). Note: JNK1 and JNK2 are expressed as two alternatively-spliced forms. JNK3 was not expressed in these cells.
(§2) To address the mechanistic questions surrounding PROTAC substrate specificity was assessed by synthesizing eight foretinib-based PROTACs that vary by linker length and by orientation of the VHL-recruiting molecule. PROTACs 1 and 48-50 (termed the ‘amide series’) were constructed using the previously-characterized “left-hand side” amide as a connection point for linker attachment to the VHL ligand, while PROTACs 5 and 45-47 (termed the ‘phenyl series’) incorporated an under-explored “right-hand side” phenyl ring attachment point of the linker to the VHL ligand (FIGS. 9A and 9B). […] PROTACs synthesized with different linker lengths, using two different points of attachment to the VHL-recruiting ligand promote distinct E3 ligase interfaces with a given p38 isoform, thereby enabling potential degradation selectivity. Indeed, this strategy of differential orientation of recruited VHL coupled with different PROTAC linker lengths enabled the identification of two PROTACs that each selectively degrade only a single p38 MAPK isoform in MDA-MB-231 cells (FIG. 9C). The examplary compound 50 and exemplary compound 46 result in potent and selective degradation of p38α and p38δ, respectively, without an observable “hook effect” within the tested dose range. […] Crucially, the DC50 for exemplary compound 50 on p38δ is >5 μM, as is the DC50 of exemplary compound 46 for p38α. Additionally, neither exemplary PROTAC degrades either of the two remaining p38 MAPK isoforms (β and γ), despite high sequence and structural conservation.
(§3) Lysates from MDA-MB-231 cells were washed once with ice cold PBS (1×), followed by lysis in buffer containing 25 mM Tris [pH 7.5], 0.25% sodium deoxycholate, 1% Triton X-100, supplemented with 1× protease inhibitor cocktail (Roche) and phosphatase inhibitors (10 mM NaF, 1 mM Na3VO4, and 20 mM β-glycerophosphate), unless otherwise noted. Lysates were spun at 14,000×g for 10 minutes at 4° C. and supernatant was evaluated for protein content using a Pierce BCA Protein Assay (Thermo Fisher Scientific). 25 to 50 μg of protein was loaded onto 10% SDS-PAGE gels or 4-20% Criterion TGX precast gradient gels (Bio-Rad), transferred to nitrocellulose membranes, and probed with the specified antibodies overnight at 4° C. in 1×TBS-Tween (Tris buffered saline plus 0.02% Tween 20) containing 5% non-fat milk. Immunoblots were visualized using a Bio-Rad ChemiDoc imaging instrument and subsequently processed and quantified using the accompanying Bio-Rad ImageLab software.

ERK2 = target: T2, ERK2 (Homo sapiens, UniProt P28482)
T2 construct: with increasing concentrations of exemplary compound 50 and 46 in MDA-MB-231 cells; endogenous in cells; host or cells: MDA-MB-231
T2 sequence (P28482 whole entry): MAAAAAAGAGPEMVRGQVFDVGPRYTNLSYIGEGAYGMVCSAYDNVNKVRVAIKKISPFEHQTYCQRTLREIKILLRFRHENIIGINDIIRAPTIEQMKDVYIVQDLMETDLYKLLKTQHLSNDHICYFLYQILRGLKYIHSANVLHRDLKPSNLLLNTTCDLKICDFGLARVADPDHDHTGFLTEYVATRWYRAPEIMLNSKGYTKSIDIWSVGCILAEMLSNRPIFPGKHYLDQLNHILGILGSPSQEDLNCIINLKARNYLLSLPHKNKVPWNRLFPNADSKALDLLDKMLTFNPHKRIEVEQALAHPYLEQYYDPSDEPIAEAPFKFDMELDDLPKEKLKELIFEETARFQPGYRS
Description: as §1, §2, §3

JNK1 = system: JNK1
Description: as §1, §2, §3

JNK2 = system: JNK2
Description: as §1, §2, §3

p38β = target: T3, p38β (Homo sapiens, UniProt Q15759)
T3 construct: with increasing concentrations of exemplary compound 50 and 46 in MDA-MB-231 cells; endogenous in cells; host or cells: MDA-MB-231
T3 sequence (Q15759 whole entry): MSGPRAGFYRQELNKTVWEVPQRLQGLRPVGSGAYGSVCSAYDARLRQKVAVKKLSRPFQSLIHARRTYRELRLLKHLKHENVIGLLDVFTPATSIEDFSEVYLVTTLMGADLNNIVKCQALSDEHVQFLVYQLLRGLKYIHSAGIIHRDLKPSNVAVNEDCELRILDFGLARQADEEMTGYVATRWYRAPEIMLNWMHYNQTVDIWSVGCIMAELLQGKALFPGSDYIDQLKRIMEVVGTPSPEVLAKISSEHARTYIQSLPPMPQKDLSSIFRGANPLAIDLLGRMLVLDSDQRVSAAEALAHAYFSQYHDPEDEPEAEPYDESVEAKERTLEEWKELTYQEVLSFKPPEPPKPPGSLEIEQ
Description: as §1, §2, §3

p38γ = target: T4, p38γ (Homo sapiens, UniProt P53778)
T4 construct: with increasing concentrations of exemplary compound 50 and 46 in MDA-MB-231 cells; endogenous in cells; host or cells: MDA-MB-231
T4 sequence (P53778 whole entry): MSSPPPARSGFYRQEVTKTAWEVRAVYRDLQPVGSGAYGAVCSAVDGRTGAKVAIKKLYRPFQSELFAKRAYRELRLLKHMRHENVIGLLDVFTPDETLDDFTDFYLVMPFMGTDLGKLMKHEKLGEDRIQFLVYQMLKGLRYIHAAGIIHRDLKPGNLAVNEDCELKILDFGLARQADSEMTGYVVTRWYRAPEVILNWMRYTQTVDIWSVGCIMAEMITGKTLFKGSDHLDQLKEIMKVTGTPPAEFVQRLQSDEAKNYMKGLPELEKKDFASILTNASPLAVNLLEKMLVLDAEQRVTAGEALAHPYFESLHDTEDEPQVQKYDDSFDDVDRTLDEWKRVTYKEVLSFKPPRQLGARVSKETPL
Description: as §1, §2, §3

T1 sequence (P27361 whole entry): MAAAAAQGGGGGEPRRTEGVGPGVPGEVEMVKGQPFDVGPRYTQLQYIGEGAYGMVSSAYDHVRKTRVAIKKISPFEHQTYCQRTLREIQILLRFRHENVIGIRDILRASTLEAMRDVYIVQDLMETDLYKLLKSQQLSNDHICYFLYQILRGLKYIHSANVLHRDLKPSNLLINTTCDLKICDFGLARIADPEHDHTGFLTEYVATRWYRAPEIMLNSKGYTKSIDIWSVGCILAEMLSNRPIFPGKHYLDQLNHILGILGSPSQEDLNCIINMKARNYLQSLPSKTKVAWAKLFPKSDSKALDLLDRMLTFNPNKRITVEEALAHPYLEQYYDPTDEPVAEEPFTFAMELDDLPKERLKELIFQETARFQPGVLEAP

COc1cc2c(Oc3ccc(NC(=O)C4(C(=O)Nc5ccc(F)cc5)CC4)cc3F)ccnc2cc1OCCOCCOCCOc1cc(-c2scnc2C)ccc1CNC(=O)[C@@H]1C[C@@H](O)CN1C(=O)[C@H](C(C)C)N1Cc2ccccc2C1=O [compound 46]
lack of degradation: degradation of ERK1 (ERK1) | degradation of ERK2 (ERK2) | degradation of JNK1 (JNK1) | degradation of JNK2 (JNK2) | degradation of p38β (p38β) | degradation of p38γ (p38γ)

COc1cc2c(Oc3ccc(NC(=O)C4(C(=O)Nc5ccc(F)cc5)CC4)cc3F)ccnc2cc1OCCCCOCCCCOCC(=O)N[C@H](C(=O)N1C[C@H](O)C[C@H]1C(=O)NCc1ccc(-c2scnc2C)cc1)C(C)(C)C [compound 50, N-(3-fluoro-4-((7-(4-(4-(2-(((S)-1-((2S,4R)-4-hydroxy-2-((4-(4-methylthiazol-5-yl)benzyl)carbamoyl)pyrrolidin-1-yl)-3,3-dimethyl-1-oxobutan-2-yl)amino)-2-oxoethoxy)butoxy)buto-xy)-6-methoxyquinolin-4-yl)oxy)phenyl)-N-(4-fluorophenyl)cyclopropane-1,1-dicarboxa-mide]
lack of degradation: degradation of ERK1 (ERK1) | degradation of ERK2 (ERK2) | degradation of JNK1 (JNK1) | degradation of JNK2 (JNK2) | degradation of p38β (p38β) | degradation of p38γ (p38γ)
